# “And” between values parts separate entries of the source, which are not always exact repeats. Identical values can stand only once.
# Test: In vitro release
# Assay type: physicochemical
# Details: for 30G x 6 mm - Cumulative Dex Release / 23G x 6 mm - Cumulative Dex Release: single samples and AVG; for Dex Release: Fig 5h implants, 1.5 ml FBS; for Cumulative Dex (%) / Cumulative Dex-TEG (%) / Cumulative Dex-TEG-Dex (%): Fig 4d pellet
# Procedure: Pellets for release studies. Crystalline drug dimers were weighed on a stainless steel coupon. In the case of blends with a second drug, the dimer and drug were mixed at the desired mass ratio with mortar and pestle prior to weighing. Samples were transferred to a heat press (Carver Laboratory Press). A PTFE mold containing an array of 1 mm diameter holes of 1 mm depth was placed on top of the melt, and pressure was applied for 2 min. Molded pellets were cooled to room temperature and punched out of the mold, yielding a pellet of 1 mm height × 1 mm diameter.
# Release studies were carried out using different media, including PBS (pH 7.4, Gibco), 100% FBS (Sigma, F1051), 1% FBS in PBS pH 7.4, and 3.6% BSA (Sigma, A7906) in PBS (pH 7.4, Gibco). […] Samples were incubated in release medium at 37 °C under constant agitation on an orbital shaker at 115 rpm (VWR). At designated timepoints, sampling was performed by complete removal of medium and replenishment with fresh buffer. Sampling timepoints included 24 h and then every 3–4 days thereafter. For PBS release conditions, samples were analyzed directly. For samples with protein (100% FBS, 1% FBS, 3.6% BSA), protein was precipitated by addition of acetonitrile. Samples were vortexed and centrifuged to separate extracted drug from precipitated protein. The supernatant was then analyzed for drug concentration by HPLC.
structure (smiles),measurement,setting,value
C[C@@H]1C[C@H]2[C@@H]3CCC4=CC(=O)C=C[C@]4(C)[C@@]3(F)[C@@H](O)C[C@]2(C)[C@@]1(O)C(=O)COC(=O)OCCOCCOCCOC(=O)OCC(=O)[C@@]1(O)[C@H](C)C[C@H]2[C@@H]3CCC4=CC(=O)C=C[C@]4(C)[C@@]3(F)[C@@H](O)C[C@@]21C [Dex-TEG-Dex],30G x 6 mm - Cumulative Dex Release,"Fig 4e, Day 24, mean",14632.22 ng
same,"23G x 6 mm - Cumulative Dex Release, %","Fig 4e, Day 28, AVG",5.83%
same,"30G x 6 mm - Cumulative Dex Release, %","Fig 4e, Day 28, AVG",26.07%
same,23G x 6 mm - Cumulative Dex Release,"Fig 4e, Day 28",22513.24 ng and 19328.26 ng and 15619.66 ng and 21703.43 ng and 22527.37 ng and 19996.59 ng
same,30G x 6 mm - Cumulative Dex Release,"Fig 4e, Day 28",17080.41 ng and 16856.88 ng and 15635.65 ng and 15175.33 ng and 17376.10 ng
same,23G x 6 mm - Cumulative Dex Release,"Fig 4e, Day 28, mean",20281.43 ng
same,30G x 6 mm - Cumulative Dex Release,"Fig 4e, Day 28, mean",16424.87 ng
same,Cumulative Dex Release,"Fig 5e extruded rods, 4.4 ml PBS, Day 3, samples and avg",1097.22 ng and 914.62 ng and 1001.18 ng
same,Cumulative Dex Release,"Fig 5e extruded rods, 4.4 ml PBS, Day 3, samples and avg, mean",1004.34 ng
same,Cumulative Dex Release,"Fig 5e extruded rods, 4.4 ml PBS, Day 7, samples and avg",2505.34 ng and 2182.65 ng and 1890.99 ng
same,Cumulative Dex Release,"Fig 5e extruded rods, 4.4 ml PBS, Day 7, samples and avg, mean",2192.99 ng
same,Cumulative Dex Release,"Fig 5e extruded rods, 4.4 ml PBS, Day 10, samples and avg",3527.54 ng and 3009.52 ng and 2686.37 ng
same,Cumulative Dex Release,"Fig 5e extruded rods, 4.4 ml PBS, Day 10, samples and avg, mean",3074.48 ng
same,Cumulative Dex Release,"Fig 5e extruded rods, 4.4 ml PBS, Day 14, samples and avg",4834.31 ng and 3361.72 ng and 3917.67 ng
same,Cumulative Dex Release,"Fig 5e extruded rods, 4.4 ml PBS, Day 14, samples and avg, mean",4037.90 ng
same,Cumulative Dex Release (%),"Fig 5e extruded rods, PBS, Day 3, avg",5.68%
same,Cumulative Dex Release (%),"Fig 5e extruded rods, PBS, Day 7, avg",12.40%
same,Cumulative Dex Release (%),"Fig 5e extruded rods, PBS, Day 10, avg",17.39%
same,Cumulative Dex Release (%),"Fig 5e extruded rods, PBS, Day 14, avg",22.83%
same,Cumulative Dex Release,"Fig 5g pellet 1x1 mm, 2 ml FBS, Day 1, samples and avg",7893.42 ng and 9312.84 ng and 6181.88 ng
same,Cumulative Dex Release,"Fig 5g pellet 1x1 mm, 2 ml FBS, Day 1, samples and avg, mean",7796.05 ng
same,Cumulative Dex Release,"Fig 5g pellet 1x1 mm, 2 ml FBS, Day 4, samples and avg",30339.61 ng and 45405.22 ng and 23002.55 ng
same,Cumulative Dex Release,"Fig 5g pellet 1x1 mm, 2 ml FBS, Day 4, samples and avg, mean",32915.79 ng
same,Cumulative Dex Release,"Fig 5g pellet 1x1 mm, 2 ml FBS, Day 7, samples and avg (Dex-TEG-Dex)",54914.64 ng and 66482.50 ng and 47540.80 ng
same,Cumulative Dex Release,"Fig 5g pellet 1x1 mm, 2 ml FBS, Day 7, samples and avg (Dex-TEG-Dex), mean",56312.65 ng
same,Cumulative Dex Release,"Fig 5g pellet 1x1 mm, 2 ml FBS, Day 12, samples and avg",107363.57 ng and 105953.49 ng and 95651.85 ng
same,Cumulative Dex Release,"Fig 5g pellet 1x1 mm, 2 ml FBS, Day 12, samples and avg, mean",102989.64 ng
same,Cumulative Dex Release,"Fig 5g pellet 1x1 mm, 2 ml FBS, Day 14, samples and avg (Dex-TEG-Dex)",134750.54 ng and 130454.95 ng and 117349.61 ng
same,Cumulative Dex Release,"Fig 5g pellet 1x1 mm, 2 ml FBS, Day 14, samples and avg (Dex-TEG-Dex), mean",127518.37 ng
same,Cumulative Dex Release (%),"Fig 5g pellet, FBS, Day 1, avg",1.53%
same,Cumulative Dex Release (%),"Fig 5g pellet, FBS, Day 4, avg",6.45%
same,Cumulative Dex Release (%),"Fig 5g pellet, FBS, Day 7, avg (Dex-TEG-Dex)",11.03%
same,Cumulative Dex Release (%),"Fig 5g pellet, FBS, Day 12, avg",20.18%
same,Cumulative Dex Release (%),"Fig 5g pellet, FBS, Day 14, avg (Dex-TEG-Dex)",24.99%
same,Dex Release,Surface Area 0.4 mm2,4010.80 ng/day and 4214.70 ng/day and 4298.12 ng/day
same,Dex Release,Surface Area 2.23 mm2,36784.29 ng/day and 23408.43 ng/day and 28616.37 ng/day
same,Dex Release,Surface Area 5.3 mm2,79250.12 ng/day and 77804.43 ng/day and 51184.45 ng/day
same,Cumulative Dex (%),"3.6% BSA, Day 1",0.09%
same,Cumulative Dex-TEG (%),"3.6% BSA, Day 1",0.00388% and 0.000233% and 0.00% and 0.00648%
same,Cumulative Dex-TEG-Dex (%),"3.6% BSA, Day 1",0.27% and 0.25% and 0.32% and 0.24% and 0.26% and 0.273%
same,Cumulative Dex (%),"3.6% BSA, Day 3",0.26%
same,Cumulative Dex-TEG (%),"3.6% BSA, Day 3",0.0221% and 0.0216% and 0.0328% and 0.0218% and 0.0264% and 0.0252%
same,Cumulative Dex-TEG-Dex (%),"3.6% BSA, Day 3",0.51% and 0.48% and 0.61% and 0.44% and 0.4979%
same,Cumulative Dex-TEG (%),"3.6% BSA, Day 7",0.08% and 0.09% and 0.10% and 0.12%
same,Cumulative Dex-TEG-Dex (%),"3.6% BSA, Day 7",0.69% and 0.68% and 0.90% and 0.62% and 0.66% and 0.7212%
same,Cumulative Dex (%),"3.6% BSA, Day 10",1.32%
same,Cumulative Dex-TEG (%),"3.6% BSA, Day 10",0.18% and 0.14% and 0.15% and 0.16% and 0.20%
same,Cumulative Dex-TEG-Dex (%),"3.6% BSA, Day 10",0.89% and 1.18% and 0.82% and 0.87% and 0.9318%
same,Cumulative Dex (%),"3.6% BSA, Day 14",1.97%
same,Cumulative Dex-TEG (%),"3.6% BSA, Day 14",0.28% and 0.21% and 0.25% and 0.22%
same,Cumulative Dex-TEG-Dex (%),"3.6% BSA, Day 14",1.13% and 1.12% and 1.43% and 0.98% and 1.06% and 1.102%
same,Cumulative Dex-TEG (%),"100% FBS, Day 1",0.00%
same,Cumulative Dex-TEG-Dex (%),"100% FBS, Day 1",0.045% and 0.05% and 0.07%
same,Cumulative Dex-TEG (%),"100% FBS, Day 3",0.02% and 0.0246% and 0.00%
same,Cumulative Dex-TEG-Dex (%),"100% FBS, Day 3",0.11% and 0.16% and 0.18%
same,Cumulative Dex-TEG (%),"100% FBS, Day 7",0.06% and 0.0546% and 0.04%
same,Cumulative Dex-TEG-Dex (%),"100% FBS, Day 7",0.22% and 0.28% and 0.36%
same,Cumulative Dex-TEG (%),"100% FBS, Day 10",0.0647% and 0.0546% and 0.06%
same,Cumulative Dex-TEG-Dex (%),"100% FBS, Day 10",0.29% and 0.38% and 0.50%
same,Cumulative Dex-TEG (%),"100% FBS, Day 14",0.08% and 0.10%
same,Cumulative Dex-TEG-Dex (%),"100% FBS, Day 14",0.39% and 0.49% and 0.68%
same,Cumulative Dex Release,"Fig 5d coating, 4 ml PBS, Day 3, samples and avg",5791.09 ng and 5024.11 ng
same,Cumulative Dex Release,"Fig 5d coating, 4 ml PBS, Day 3, samples and avg, mean",5535.43 ng
same,Cumulative Dex Release,"Fig 5d coating, 4 ml PBS, Day 7, samples and avg",17637.28 ng and 18646.47 ng and 15578.55 ng
same,Cumulative Dex Release,"Fig 5d coating, 4 ml PBS, Day 7, samples and avg, mean",17287.43 ng
same,Cumulative Dex Release,"Fig 5d coating, 4 ml PBS, Day 10, samples and avg",20320.09 ng and 21014.00 ng and 17829.42 ng
same,Cumulative Dex Release,"Fig 5d coating, 4 ml PBS, Day 10, samples and avg, mean",19721.17 ng
same,Cumulative Dex Release,"Fig 5d coating, 4 ml PBS, Day 14, samples and avg",28452.49 ng and 28863.83 ng and 25840.72 ng
same,Cumulative Dex Release,"Fig 5d coating, 4 ml PBS, Day 14, samples and avg, mean",27719.01 ng
same,Cumulative Dex Release (%),"Fig 5d coating, PBS, Day 3, avg",0.71%
same,Cumulative Dex Release (%),"Fig 5d coating, PBS, Day 7, avg",2.21%
same,Cumulative Dex Release (%),"Fig 5d coating, PBS, Day 10, avg",2.52%
same,Cumulative Dex Release (%),"Fig 5d coating, PBS, Day 14, avg",3.55%
